Among the data in patent US20260184701A1, “FIVE-MEMBERED HETEROARYL COMPOUND AND AGRICULTURAL AND HORTICULTURAL FUNGICIDE” (Nippon Soda Co., Ltd., priority 2022, published 2026) are pest or weed control and inhibition of growth values, retold here.

Where only a bound is given, the exact number is not on record here.

Assay [1] has as its system Botrytis cinerea. Kind of assay: Control test of cucumber gray mold (sprayed young cucumber seedlings, inoculated). The settings on record: in Cucumis sativus, 96 h, read-out: control value.
Protocol: Water was added to the emulsion to obtain a drug liquid in which the concentration of the five-membered heteroaryl compound according to the present invention reached a predetermined concentration. Then, the drug liquid was sprayed onto young cucumber seedlings cultivated in a nursery pot (variety “Jihai”-based, cotyledon stage), and then air-dried. […] They were left still in a moist room at 20° C.
Assay [2] relates to Glomerella cingulata. Kind of assay: Fungicidal effect test against fungi causing grape ripe rot disease (spore suspension, turbidity). In kind it is cell-based. The following applies: Colletotrichum gloeosporioides, 72 h; 25 ppm by volume; Vogel medium; 25° C., three days.
The test system of assay [3] is Colletotrichum acutatum. The assay is described as follows: Fungicidal effect test against fungus causing apple anthracnose (spore suspension, turbidity). In kind it is cell-based. The settings on record: 96 h, 25 ppm by volume, Czapek medium, 25° C., four days.

The inhibition of growth is the share of the control response that was lost under treatment. For `C=C/C(=C\C=C\C)CCN/C(=N\OC)c1c(Oc2cccc(Br)c2)cnn1C` [a-2], the pest or weed control at 25 ppm in assay [1] was not below 75%. The inhibition of growth at 25 ppm in assay [2] and in assay [3] was not below 75% in each case.
Regarding `Cc1ccc(CC2CON=C(c3c(Oc4cccc(C5CC5)c4)cnn3C)N2)c(C)c1` (stereo not drawn) [a-3], in assay [1], the pest or weed control at 125 ppm is not below 75%. Also, the inhibition of growth at 25 ppm in assay [2] and in assay [3] was not below 75% each time.
With `C=C(C)/C(=C\C=C\C)CC(CON)NCc1c(Oc2ccc(Br)cc2)cnn1C` (stereo not drawn) [a-5], the inhibition of growth at 25 ppm in assay [2] and in assay [3] was not below 75% in each case.
In the case of `CO/N=C(\NCCC1CC=C(C)C=C1C)c1c(Oc2ccc(C3CC3)cc2)cnn1C` (stereo not drawn) [a-6], the inhibition of growth at 25 ppm in assay [2] is not below 75%.
For the molecule `Cc1ccc(Oc2cnn(C)c2C2=NOCC(Cc3ccc(C)cc3C)N2)cc1` (stereo not drawn) [a-7], the inhibition of growth at 25 ppm in assay [2] and in assay [3] was not below 75% in each case.
On to `CO/N=C(\NCCc1ccc(C)cc1)c1c(Oc2cccc(I)c2)cnn1C` [a-8], for which the pest or weed control at 125 ppm in assay [1] is not below 75%. In addition, the inhibition of growth at 25 ppm in assay [2] and in assay [3] was not below 75% each time.
On to `CCc1cccc(Oc2cnn(C)c2C2=NOCC(Cc3ccc(C)cc3C)N2)c1` (stereo not drawn) [a-10, 5-(2,4-dimethylbenzyl)-3-(4-(3-ethylphenoxy)-1-methyl-1H-pyrazol-5-yl)-5,6-dihydro-4H-1,2,4-oxadiazine], for which the inhibition of growth at 25 ppm in assay [2] and in assay [3] was not below 75% throughout.
`Cc1cccc(Oc2nnn(C)c2C2=NOCC(Cc3ccc(C)cc3C)N2)c1` (stereo not drawn) [a-12]: the pest or weed control at 25 ppm in assay [1] is not below 75%. Besides, in assay [1], the pest or weed control at 125 ppm was not below 75%. Moreover, the inhibition of growth at 25 ppm in assay [2] and in assay [3] was not below 75% throughout.
As for `CO/N=C(\NCCc1ccc(C)cc1)c1c(Oc2ccc(Cl)c(C)c2)nnn1C` [a-13], the inhibition of growth at 25 ppm in assay [2] and in assay [3] was not below 75% in each case.
As for `CO/N=C(\NCCc1ccc(C)cc1C)c1c(Oc2cccc(C(F)(F)F)c2F)nnn1C` [a-16], the inhibition of growth at 25 ppm in assay [2] and in assay [3] was not below 75% throughout.
`C/C=C(C)\C=C(\C)CCCN/C(=N\OC)c1c(Oc2cccc(Cl)c2)cnn1C` [a-17]: the inhibition of growth at 25 ppm in assay [2] and in assay [3] was not below 75% each time.
As for `Cc1cccc(Oc2c(Cl)nn(C)c2C2NOCC(Cc3ccc(C)cc3C)N2)c1` (stereo not drawn) [a-18], the inhibition of growth at 25 ppm in assay [2] and in assay [3] was not below 75% in each case.
Consider `C/C=C(C)\C=C(\C)CCC1CON=C(c2c(Oc3cccc(Br)c3F)cnn2C)N1` (stereo not drawn) [a-19], for which the inhibition of growth at 25 ppm in assay [2] and in assay [3] was not below 75% each time.
Regarding `CCn1ncc(Oc2cccc(C)c2)c1CNC(CON)Cc1ccc(C)cc1C` (stereo not drawn) [a-20], the inhibition of growth at 25 ppm in assay [2] and in assay [3] was not below 75% throughout.
For `C/C=C(Cl)\C=C(\Cl)CCC1CON=C(c2c(Oc3cccc(C)c3)cnn2CC)N1` (stereo not drawn) [a-21], the inhibition of growth at 25 ppm in assay [2] and in assay [3] was not below 75% throughout.
Regarding `C=C/C(=C\C=C\Br)CCN/C(=N\OC)c1c(Oc2cccc(C)c2)cnn1CC` [a-22], the inhibition of growth at 25 ppm in assay [2] and in assay [3] was not below 75% each time.
Turning to `CO/N=C(\NCCc1ccc(Br)cc1)c1c(Oc2cccc(C)c2)cnn1C` [a-23], the inhibition of growth at 25 ppm in assay [2] and in assay [3] was not below 75% each time.
As to `Cc1ccc(CC2CON=C(c3c(Oc4cccc(Br)c4)cnn3CC(F)(F)F)N2)cc1` (stereo not drawn) [a-24], the inhibition of growth at 25 ppm in assay [2] and in assay [3] was not below 75% each time.
`Cn1ncc(Oc2cccc(C(F)(F)F)c2)c1C1=NOCC(c2cccs2)N1` (stereo not drawn) [a-25, 3-(1-methyl-4-(3-(trifluoromethyl)phenoxy)-1H-pyrazol-5-yl)-5-(thiophen-2-yl)-5,6-dihydro-4H-1,2,4-oxadiazine] came in with an inhibition of growth at 25 ppm in assay [2] not below 75%.
Take `Cc1ccc(C2CON=C(c3c(Oc4cccc(C(F)(F)F)c4)cnn3C)N2)s1` (stereo not drawn) [a-26, 3-(1-methyl-4-(3-(trifluoromethyl)phenoxy)-1H-pyrazol-5-yl)-5-(5-methylthiophen-2-yl)-5,6-dihydro-4H-1,2,4-oxadiazine]: the inhibition of growth at 25 ppm in assay [2] and in assay [3] was not below 75% each time.
With `C=C/C(=C\C=C\C)CC1CON=C(c2c(Oc3cccc(C)c3)cnn2C(C)C)N1` (stereo not drawn) [a-27], the pest or weed control at 25 ppm in assay [1] was not below 75%. Further, in assay [1], the pest or weed control at 125 ppm is not below 75%. Also, the inhibition of growth at 25 ppm in assay [2] and in assay [3] was not below 75% in each case.
Consider `Cc1cc(C2CON=C(c3c(Oc4cccc(C(F)(F)F)c4)cnn3C)N2)c(C)s1` (stereo not drawn) [a-28], for which the inhibition of growth at 25 ppm in assay [2] and in assay [3] was not below 75% each time.
Molecule `Cc1ccc(C(CON)NCc2c(Oc3cccc(C(F)(F)F)c3)cnn2C)o1` (stereo not drawn) [a-29] returned an inhibition of growth at 25 ppm in assay [2] not below 75%.
Consider `CCn1nc(Cl)c(Oc2cccc(C(F)(F)F)c2)c1C1=NOCC(Cc2ccc(C)cc2C)N1` (stereo not drawn) [a-30, 3-(3-chloro-1-ethyl-4-(3-(trifluoromethyl)phenoxy)-1H-pyrazol-5-yl)-5-(2,4-dimethylbenzyl)-5,6-dihydro-4H-1,2,4-oxadiazine], for which, in assay [1], the pest or weed control at 25 ppm is not below 75% and the pest or weed control at 125 ppm is not below 75%. Moreover, the inhibition of growth at 25 ppm in assay [2] was not below 75%. Also, in assay [3], the inhibition of growth at 25 ppm was not below 75%.
`C=C/C(=C\C=C\C)CC1CON=C(c2c(Oc3cccc(C)c3)c(C)nn2C)N1` (stereo not drawn) [a-31]: the inhibition of growth at 25 ppm in assay [2] and in assay [3] was not below 75% throughout.
`CO/N=C(\NCCc1ccc(C)cc1C)c1c(Oc2cccc(C#N)c2)cnn1C` [a-33]: the inhibition of growth at 25 ppm in assay [2] and in assay [3] was not below 75% each time.
Regarding `C/C=C(C#N)\C=C(\C)CCC1CON=C(c2c(Oc3cccc(C)c3)cnn2C)N1` (stereo not drawn) [a-34], the pest or weed control at 125 ppm in assay [1] is not below 75%. Further, the inhibition of growth at 25 ppm in assay [2] and in assay [3] was not below 75% in each case.
In the case of `C/C=C/c1ccc(CC2CON=C(c3c(Oc4cccc(C)c4)cnn3C)N2)c(C)c1` (stereo not drawn) [a-35], the inhibition of growth at 25 ppm in assay [2] and in assay [3] was not below 75% in each case.
